Reference: article PMC10980815, “Cell surface patching via CXCR4-targeted nanothreads for cancer metastasis inhibition” (Nature Communications, 2024)
Ends that are not written are not given here. HPMA copolymer = HPMA copolymer made by RAFT copolymerization of HPMA with N-(3-aminopropyl)methacrylamide (APMA), bearing maleimide groups for grafting

Key:
[1] = tested on: orthotopic 4T1 breast tumors; assay: Tumor-infiltrating CD8+ T lymphocytes, Tregs and MDSCs (flow cytometry); format: in vivo, female BALB/c mice; conditions: for CD3+CD8+ T cells (%) in tumor / CD11b+Gr1+ MDSCs (%) in tumor / Tregs (%) in CD4+ T cells: Supplementary Fig. 16a; for intratumoral Tregs and MDSCs: three i.v. cycles days 7, 14, 21, day 28, no PDT
Experimental: 4T1 cells (1 × 10^6 cells) were injected into the third mammary fat pad of female BALB/c mice (6–8-week). When tumor volumes reached nearly […] on day 7 after tumor inoculation, mice were randomly divided into 8 groups (n = 8 per group). For four groups without laser irradiation (−), mice were intravenously injected with the following samples: (1) saline on day 7, 14, 21, and 28, (2) P-PS on day 7, 14, 21, and 28, (3) P-BS-PS on day 7, 14, 21, and 28, or (4) P-BS-CM1 on day 7, 14, 21, and 28, followed by P-PS-CM2 on day 8, 15, 22, and 29 (5 mg/kg BS equivalence, CM1:CM2 1:1 mol%, 2.5 mg/kg PS equivalence), respectively. For four groups with laser irradiation (+), mice were treated with the same regimens and irradiated at 650 nm laser (580 mW/cm^2, 5 min) on day 9, 16, 23 and 30. Tumor volumes and mice survivals were recorded every other day. For the investigation of immune response and lung metastasis, 4T1 tumor-bearing female BALB/c mice (6–8-week, tumor volume~100 mm^3) were randomly divided into 8 groups (n = 5 per group) and given three rounds of above treatments. On day 28, lungs and tumors were harvested. lungs were fixed with Bouin’s solution. The pulmonary metastatic nodules were counted and analyzed by hematoxylin-eosin staining. Single-cell suspensions of tumor tissues were stained with anti-CD45-PerCP/Cy5.5 (1:300 dilution) and anti-calreticulin recombinant rabbit monoclonal antibody (1:500 dilution) at 4 °C for 1 h, and then stained with goat anti-rabbit IgG H&L Alexa Fluor® 647 (1:1000 dilution, 4 °C, 45 min), followed by flow cytometry analysis. ATP and HMGB1 concentrations in the supernatant of cell suspension were measured using a luciferase-based ATP assay kit and a mouse HMGB1 ELISA kit, respectively. Single-cell suspensions of tumors were stained with FITC anti-mouse CD3 antibody (1:300 dilution), PerCP/Cyanine5.5 anti-mouse CD4 antibody (1:300 dilution), anti-CD8α-APC (1:300 dilution), and anti-Foxp3-PE (1:300 dilution) for flow cytometry analysis of T cell subtypes (CD8^+ T cells, CD4^+ effector T cells, and Foxp3^+ regulatory T cells), and stained with PE anti-mouse/human CD11b antibody (1:300 dilution) and FITC anti-mouse Ly-6G/Ly-6C (Gr-1) antibody (1:300 dilution) for flow cytometry analysis of MDSCs (CD11b^+Gr1^+). Cytotoxic T cells in tumor tissues were investigated with immunofluorescent staining of IFN-γ and flow cytometry analysis using anti-IFN-γ-PE (1:300 dilution). For CD8-depletion assay, 4T1 tumor-bearing female BALB/c mice (6–8-week, tumor volume~100 mm^3) were randomly divided into 3 groups (n = 8 per group). Mice were intravenously given four doses of P-BS-CM1 on day 7, 14, 21 and 28, combined with P-PS-CM2 on day 8, 15, 22 and 29 (5 mg/kg BS equivalence, CM1:CM2 1:1 mol%, 2.5 mg/kg PS equivalence) in the presence or absence of InvivoMab anti-mouse CD8α (100 μg/mice). Mice were irradiated at 650 nm laser (580 mW/cm^2, 5 min) on day 9, 16, 23 and 30. Tumor volumes and mice survivals were recorded every other day.

[2] = tested on: HIF-1α in orthotopic 4T1 tumors; assay: Intratumoral HIF-1α expression by flow cytometry; format: in vivo, female BALB/c mice
Experimental: 4T1 cells (1 × 10^6 cells) were injected into the third mammary fat pad of female BALB/c mice (6–8-week). […] On day 28, blood samples, lungs and tumors were harvested.
For evaluating the hypoxic conditions in tumor tissues, immunofluorescent staining and flow cytometry analysis of HIF-1α were conducted. For immunofluorescent staining of HIF-1α, tumor slices were sequentially stained with anti-HIF-1 alpha recombinant rabbit monoclonal antibody (1:500 dilution) and goat anti-rabbit IgG H&L Alexa Fluor® 647 (1:1000 dilution). For flow cytometry analysis of HIF-1α, single-cell suspensions of tumor tissues were sequentially stained with anti-HIF1 alpha rabbit polyclonal antibody (1:500 dilution) and goat anti-rabbit IgG H&L Alexa Fluor® 647 (1:1000 dilution) before analysis.

[3] = Hydrodynamic size / size distribution by dynamic light scattering; format: physicochemical; conditions: Malvern Zetasizer Nano ZS90, mean ± SD
Experimental: The average molecular weight (Mw) and polydispersity (PDI) of the HPMA copolymer conjugates were determined by gel permeation chromatography (GPC) on an AKTA purifier equipment with a Superose 6 10/300 GL analytical column (GE Healthcare, USA) and a differential refraction detector (KNAUER, 2300, Germany). Hydrodynamic sizes and zeta potentials were determined using a Malvern Zetasizer Nano ZS90 equipment (Malvern Instruments Ltd, Malvern, UK). The contents of BS, CM1, and CM2 were determined using a bicinchoninic acid (BCA) protein assay. The PS concentration was determined by ultraviolet-visible (UV-Vis) spectroscopy at its characteristic absorbance peak (660 nm).
To investigate the coiled-coil assembly, varying CM1-to-CM2 ratios (3:1, 1:1, and 1:3) of P-BS-CM1 and P-CM2 were mixed in 10 mM PBS (pH 7.4) at 25 °C for 10 min. The total polymer concentration was kept constant at 10 mg/mL. Circular dichroism spectra, size distribution, and rheological properties of P-BS-CM1, P-CM2, and their mixture were measured. The surface morphology of P-BS-CM1 and the mixture (P-BS-CM1 + P-CM2) was observed using scanning electron microscopy. Additionally, for the FRET assay, CM1-to-CM2 equimolar of P-BS-CM1-Cy5 and P-CM2-Cy3 were mixed in 10 mM PBS (pH 7.4) at 25 °C for 10 min. Fluorescent spectra of P-BS-CM1-Cy5, P-CM2-Cy3, and the mixture (P-BS-CM1-Cy5+P-CM2-Cy3) were recorded at the Cy3 excitation wavelength of 550 nm.

[4] = i.v. days 7, 14, 21 (5 mg/kg BS equivalence; P-CM2 24 h later), analysis day 28, mouse 1 of 5

| Substance | CD3+CD8+ T cells (%) in tumor ([1]; replicate 1 of 5) [%] | CD11b+Gr1+ MDSCs (%) in tumor ([1]; replicate 1 of 5) [%] | Tregs (%) in CD4+ T cells ([1]; replicate 1 of 5) [%] | CD3+CD8+ T cells (%) in tumor ([1]; replicate 2 of 5) [%] | CD11b+Gr1+ MDSCs (%) in tumor ([1]; replicate 2 of 5) [%] | Tregs (%) in CD4+ T cells ([1]; replicate 2 of 5) [%] | CD3+CD8+ T cells (%) in tumor ([1]; replicate 3 of 5) [%] | CD11b+Gr1+ MDSCs (%) in tumor ([1]; replicate 3 of 5) [%] | Tregs (%) in CD4+ T cells ([1]; replicate 3 of 5) [%] | CD3+CD8+ T cells (%) in tumor ([1]; replicate 4 of 5) [%] | CD11b+Gr1+ MDSCs (%) in tumor ([1]; replicate 4 of 5) [%] | Tregs (%) in CD4+ T cells ([1]; replicate 4 of 5) [%] | CD3+CD8+ T cells (%) in tumor ([1]; replicate 5 of 5) [%] | CD11b+Gr1+ MDSCs (%) in tumor ([1]; replicate 5 of 5) [%] | Tregs (%) in CD4+ T cells ([1]; replicate 5 of 5) [%] | intratumoral Tregs and MDSCs [1] | intratumoral HIF-1α expression, flow cytometry (Fig. 6c) [2, 4] | intratumoral HIF-1α expression, flow cytometry (Fig. 6c) ([2]; same, mouse 2 of 5) | intratumoral HIF-1α expression, flow cytometry (Fig. 6c) ([2]; same, mouse 3 of 5) | intratumoral HIF-1α expression, flow cytometry (Fig. 6c) ([2]; same, mouse 4 of 5) | further results |
| --- | --- | --- | --- | --- | --- | --- | --- | --- | --- | --- | --- | --- | --- | --- | --- | --- | --- | --- | --- | --- | --- |
| LGASWHRPDKCCLGYQKRPLPA [Free BS] | 0.123 | 19.37 | 22.46 | 0.1188 | 18.11 | 19.38 | 0.1444 | 26.3 | 19.75 | 0.1085 | 21.21 | 21.91 | 0.1016 | 17.61 | 22.71 | not affected | 1107.6 | 915.453 | 924.512 | 898.316 | intratumoral HIF-1α expression, flow cytometry (Fig. 6c) ([2]; same, mouse 5 of 5): 847.852 |
| P-BS: HPMA copolymer-BS conjugate, ~6 BS grafts per polymer (LGASWHRPDKCCLGYQKRPLPA; not fully specified (residues 11, 12); also: about 6 peptides grafted on HPMA copolymer via cysteine-maleimide thioether links) | 0.1153 | 12.4 | 15.81 | 0.2531 | 14.84 | 15.31 | 0.2407 | 14.8 | 13.12 | 0.1577 | 14.66 | 11.55 | 0.2259 | 15.36 | 16.67 | moderately decreased | 747.043 | 870.276 | 640.882 | 534.456 | Size [3]: 15.7±0.8 nm; intratumoral HIF-1α expression, flow cytometry (Fig. 6c) ([2]; same, mouse 5 of 5): 521.955 |
| P-CM2-Cy3: Cy3-labeled P-CM2 (C(HPMA copolymer)YGGEVSALEKEVSALEKKNSALEKEVSALEKEVSALEK; also: Cy3 label on conjugate, position not given here) |  |  |  |  |  |  |  |  |  |  |  |  |  |  |  |  |  |  |  |  | Size [3]: 20.4±0.5 nm |
